Experimental data: patent US10450297B2, “Sulfonyl amide derivatives for the treatment of abnormal cell growth” (Pfizer, Inc., priority 2007, dated 2019)
Each block holds one molecule with its values, some of them ahead of it.

Biological target: FAK kinase (catalytic construct FAK(410-689)) (Homo sapiens (Human), UniProt Q05397)
Experiment: FAKcd kinase ELISA (inhibition of poly-glu-tyr phosphorylation by FAK(410-689))
Type: biochemical
Conditions: 50 μM final ATP

Sequence of FAK kinase (catalytic construct FAK(410-689)) (Q05397 410-689): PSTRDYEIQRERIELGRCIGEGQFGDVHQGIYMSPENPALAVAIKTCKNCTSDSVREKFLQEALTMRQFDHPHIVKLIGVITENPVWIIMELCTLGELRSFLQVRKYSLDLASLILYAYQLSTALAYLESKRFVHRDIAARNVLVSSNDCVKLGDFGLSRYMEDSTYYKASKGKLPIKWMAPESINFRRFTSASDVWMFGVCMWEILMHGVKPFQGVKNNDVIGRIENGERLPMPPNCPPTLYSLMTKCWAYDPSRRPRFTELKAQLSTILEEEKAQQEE

Structure (SMILES): CN1CCC(NC(=O)c2cccc(Nc3ncc(C(F)(F)F)c(NCc4cccnc4N(C)S(C)(=O)=O)n3)c2)CC1 [Compound 173, 3-({4-[({2-[methyl(methylsulfonyl)amino]pyridin-3-yl}methyl)amino]-5-(trifluoromethyl)pyrimidin-2-yl}amino)-N-(1-methylpiperidin-4-yl)benzamide]
IC50: 0.96 nM

Structure (SMILES): CN(c1ncccc1CNc1nc(Nc2cccc(C(=O)N3CC[C@@H](O)C3)c2)ncc1C(F)(F)F)S(C)(=O)=O [Compound 175, N-{3-[({2-[(3-{[(3R)-3-hydroxypyrrolidin-1-yl]carbonyl}phenyl)amino]-5-(trifluoromethyl)pyrimidin-4-yl}amino)methyl]pyridin-2-yl}-N-methyl-methanesulfonamide]
IC50: 4.08 nM

Structure (SMILES): CN(c1ncccc1CNc1nc(Nc2cccc(C(=O)N3CCC(F)(F)C3)c2)ncc1C(F)(F)F)S(C)(=O)=O [Compound 177, N-[3-({(2-({3-[(3,3-difluoropyrrolidin-1-yl)carbonyl]phenyl}amino)-5-(trifluoromethyl)pyrimidin-4-yl]amino}methyl)pyridin-2-yl]-N-methylmethane-sulfonamide]
IC50: 5.93 nM

Structure (SMILES): CC(C)[C@@H](CO)NC(=O)c1cccc(Nc2ncc(C(F)(F)F)c(NCc3cccnc3N(C)S(C)(=O)=O)n2)c1 [Compound 179, N-[(1S)-1-(hydroxymethyl)-2-methylpropyl]-3-({4-[({2-[methyl(methylsulfonyl)amino]pyridin-3-yl}methyl)amino]-5-(trifluoromethyl)pyrimidin-2-yl}amino)benzamide]
IC50: 1.09 nM

Structure (SMILES): COCCCN(C)C(=O)c1cccc(Nc2ncc(C(F)(F)F)c(NCc3cccnc3N(C)S(C)(=O)=O)n2)c1 [Compound 181, N-(3-methoxypropyl)-N-methyl-3-({4-[({2-[methyl(methylsulfonyl)amino]pyridin-3-yl}methyl)amino]-5-(trifluoromethyl)pyrimidin-2-yl}amino)benzamide]
IC50: 9.18 nM

Structure (SMILES): CC[C@@H](CO)NC(=O)c1cccc(Nc2ncc(C(F)(F)F)c(NCc3cccnc3N(C)S(C)(=O)=O)n2)c1 [Compound 183, N-[(1S)-1-(hydroxymethyl)propyl]-3-({4-[({2-[methyl(methylsulfonyl)amino]pyridin-3-yl}methyl)amino]-5-(trifluoromethyl)pyrimidin-2-yl}amino)benzamide]
IC50: 1.96 nM

Structure (SMILES): CN(c1ncccc1CNc1nc(Nc2cccc(C(=O)NC3CCC3)c2)ncc1C(F)(F)F)S(C)(=O)=O [Compound 185, N-cyclobutyl-3-({4-[({2-[methyl(methylsulfonyl)amino]pyridin-3-yl}methyl)amino]-5-(trifluoromethyl)pyrimidin-2-yl}amino)benzamide]
IC50: 2.17 nM

Structure (SMILES): CC(C)NC(=O)c1cccc(Nc2ncc(C(F)(F)F)c(NCc3cccnc3N(C)S(C)(=O)=O)n2)c1 [Compound 189, N-isopropyl-3-({4-[({2-[methyl(methylsulfonyl)amino]pyridin-3-yl}methyl)amino]-5-(trifluoromethyl)pyrimidin-2-yl}amino)benzamide]
IC50: 4.3 nM

Further lines, results first:

IC50: 5.5 nM
Structure (SMILES): CN(c1ncccc1CNc1nc(Nc2cccc(C(=O)NCc3ccccc3)c2)ncc1C(F)(F)F)S(C)(=O)=O [Compound 191, N-benzyl-3-({4-[({2-[methyl(methylsulfonyl)amino]pyridin-3-yl}methyl)amino]-5-(trifluoromethyl)pyrimidin-2-yl}amino)benzamide]

IC50: 1.1 nM
Structure (SMILES): CCCN(CCO)C(=O)c1cccc(Nc2ncc(C(F)(F)F)c(NCc3cccnc3N(C)S(C)(=O)=O)n2)c1 [Compound 193, N-(2-hydroxyethyl)-3-({4-[({2-[methyl(methylsulfonyl)amino]pyridin-3-yl}methyl)amino]-5-(trifluoromethyl)pyrimidin-2-yl}amino)-N-propylbenzamide]

IC50: 6.81 nM
Structure (SMILES): CCN(CCOC)C(=O)c1cccc(Nc2ncc(C(F)(F)F)c(NCc3cccnc3N(C)S(C)(=O)=O)n2)c1 [Compound 195, N-ethyl-N-(2-methoxyethyl)-3-({4-[({2-[methyl(methylsulfonyl)amino]pyridin-3-yl}methyl)amino]-5-(trifluoromethyl)pyrimidin-2-yl}amino)benzamide]

IC50: 4.47 nM
Structure (SMILES): CC1CCN(C(=O)c2cccc(Nc3ncc(C(F)(F)F)c(NCc4cccnc4N(C)S(C)(=O)=O)n3)c2)CC1 [Compound 197, N-methyl-N-[3-({[2-({3-[(4-methylpiperidin-1-yl)carbonyl]phenyl}amino)-5-(trifluoromethyl)pyrimidin-4-yl]amino}methyl)pyridin-2-yl]methanesulfonamide]

IC50: 2.56 nM
Structure (SMILES): CN1CCN(C(=O)c2cccc(Nc3ncc(C(F)(F)F)c(NCc4cccnc4N(C)S(C)(=O)=O)n3)c2)CC1 [Compound 199, N-methyl-N-[3-({[2-({3-[(4-methylpiperazin-1-yl)carbonyl]phenyl}amino)-5-(trifluoromethyl)pyrimidin-4-yl]amino}methyl)pyridin-2-yl]methanesulfonamide]

IC50: 1.64 nM
Structure (SMILES): CN(c1ncccc1CNc1nc(Nc2cccc(C(=O)NC(C)(C)CO)c2)ncc1C(F)(F)F)S(C)(=O)=O [Compound 201, N-(2-hydroxy-1,1-dimethylethyl)-3-({4-[({2-[methyl(methylsulfonyl)amino]pyridin-3-yl}methyl)amino]-5-(trifluoromethyl)pyrimidin-2-yl}amino)benzamide]

IC50: 1.13 nM
Structure (SMILES): CCC(CO)NC(=O)c1cccc(Nc2ncc(C(F)(F)F)c(NCc3cccnc3N(C)S(C)(=O)=O)n2)c1 (stereo not shown) [Compound 203, N-[1-(hydroxymethyl)propyl]-3-({4-[({2-[methyl(methylsulfonyl)amino]pyridin-3-yl}methyl)amino]-5-(trifluoromethyl)pyrirnidin-2-yl}amino)benzamide]

IC50: 3.2 nM
Structure (SMILES): CN(C)CCNC(=O)c1cccc(Nc2ncc(C(F)(F)F)c(NCc3cccnc3N(C)S(C)(=O)=O)n2)c1 [Compound 205, N-[2-(dimethylamino)ethyl]-3-({4-[({2-[methyl(methylsulfonyl)amino]pyridin-3-yl}methyl)amino]-5-(trifluoromethyl)pyrimidin-2-yl}amino)benzamide]

IC50: 2.78 nM
Structure (SMILES): C[C@@H]1COCCN1C(=O)c1cccc(Nc2ncc(C(F)(F)F)c(NCc3cccnc3N(C)S(C)(=O)=O)n2)c1 [Compound 207, N-methyl-N-{3-[({2-[(3-{[(3R)-3-methylmorpholin-4-yl]carbonyl}phenyl)amino]-5-(trifluoromethyl)pyrimidin-4-yl}amino)methyl]pyridin-2-yl}methanesulfonamide]

IC50: 3.68 nM
Structure (SMILES): CCCC1(NC(=O)c2cccc(Nc3ncc(C(F)(F)F)c(NCc4cccnc4N(C)S(C)(=O)=O)n3)c2)CC1 [Compound 209, 3-({4-[({2-[methyl(methylsulfonyl)amino]pyridin-3-yl}methyl)amino]-5-(trifluoromethyl)pyrimidin-2-yl}amino)-N-(1-propylcyclopropyl)benzamide]

IC50: 1.06 nM
Structure (SMILES): C[C@@H](CO)NC(=O)c1cccc(Nc2ncc(C(F)(F)F)c(NCc3cccnc3N(C)S(C)(=O)=O)n2)c1 [Compound 211, N-[(1S)-2-hydroxy-1-methylethyl]-3-({4-[({2-[methyl(methylsulfonyl)amino]pyridin-3-yl}methyl)amino]-5-(trifluoromelhyl)pyrimidin-2-yl}amino)benzamide]
